Data taken from patent US20260297129A1, “PEPTIDES AS SELECTIVE IL-23 RECEPTOR INHIBITORS” (SANOFI, priority 2023, published 2026).
Read-outs that look alike come from different tables or passages of the source. Numbered stars: 1 amine (or outer) side, 2 acyl side, 3 side chain; on linkers, the order of the positions; unused ones are H or OH. Bridge positions count the residues as written; N and C are the ends. Square brackets hold non-standard residues; d marks the D form. Peptide text beside a SMILES is read from it. * marks the point of attachment. Lys(Me,(CH2)4NMe(CH2)5CO) = CN(CCCCCC(=O)[*:3])CCCCN(C)CCCC[C@H](N[*:1])C(=O)[*:2]; X2 = O=C(Cc1ccc(-c2ccc(CC(=O)[*:2])cc2)cc1)[*:1]; Trp(7-Me) = Cc1cccc2c(C[C@H](N)C(=O)O)c[nH]c12; Sebacoyl = O=C(CCCCCCCCC(=O)[*:2])[*:1]; NH(CH2)9CO = O=C(CCCCCCCCCN[*:1])[*:2]; 2Nal = N[C@@H](Cc1ccc2ccccc2c1)C(=O)O; Suberoyl = O=C(CCCCCCC(=O)[*:2])[*:1]; d2Nal = N[C@H](Cc1ccc2ccccc2c1)C(=O)O; C12 diacid = O=C(O)CCCCCCCCCCC(=O)*; X1 = O=C(CCCCCCCCCCCCCN[*:1])[*:2]; 3Pal = N[C@@H](Cc1cccnc1)C(=O)O; 12Ado = NCCCCCCCCCCCC(=O)O; AEEEA = NCCOCCOCCOCC(=O)O; Aun = NCCCCCCCCCCC(=O)O; Thp = NC1(C(=O)O)CCOCC1; Me2NCH2CH2 = CN(C)CC*; Aib = CC(C)(N)C(=O)O; Aoc = NCCCCCCCC(=O)O; Sar = CNCC(=O)O

Experiments:
[1] = Chemical stability (relative purity loss) of peptide compounds in buffer formulations (Table 6); assay type: physicochemical; settings: 2° C. and 37° C.
Summary of the method: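 Compounds at 0.5 mg/mL in 50 mM HCl pH 1.2, 50 mM phosphate pH 6.5 or pH 7.4, each with acetonitrile (3:1), stored 24 hours at 2° C and 37° C. Purity measured by UHPLC-UV before and after. Stability expressed as relative purity loss.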

[2] = system: IL-23 induced STAT3 signaling (IL-23 receptor) in HEK-Blue IL-23 cells; assay: Inhibition of IL-23 induced STAT3 signaling in HEK-Blue IL-23 cells, SEAP reporter (Table 9); assay type: cell-based; settings: human IL23 0.25 ng/ml, overnight, read-out: Inhibition of IL-23 induced pSTAT3 (IC50 nM)
Summary of the method: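 STAT3-driven SEAP output measured at OD 620–655 nm after 45 min QUANTI-Blue development of supernatant, with dose-response fits. Peptides were given 60 min ahead of 0.25 ng/ml (final) human IL-23, followed by overnight culture at 37 °C; 10,000 HEK-Blue IL-23 cells per well.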

[3] = 50 mM phosphate buffer pH 6.5 + acetonitrile (3:1), read-out: Chemical stability (relative purity loss), Buffer pH 6.5
[4] = 50 mM phosphate buffer pH 7.4 + acetonitrile (3:1), read-out: Chemical stability (relative purity loss), Buffer pH 7.4
[5] = 50 mm hcl + acetonitrile, Buffer pH 1.1 (head; method: 50 mM HCl pH 1.2 + acetonitrile 3:1), read-out: Chemical stability (relative purity loss), Buffer pH 1.1

degraded at 24 h [1, 3] [%]	degraded at 24 h [1, 4] [%]	degraded at 24 h [1, 5] [%]	Structure (SMILES)	IC50 [2] [nM]
0	0	5.6	Cc1cccc2c(C[C@@H]3NC(=O)CCCCCCCNC(=O)CC[C@@H](C(=O)N[C@@H](CC(N)=O)C(=O)N[C@@H](Cc4cccnc4)C(=O)N(C)CC(N)=O)NC(=O)C(C)(C)NC(=O)[C@H](Cc4ccc5ccccc5c4)NC(=O)[C@H](Cc4ccc(OCCN(C)C)cc4)NC(=O)C4(CCOCC4)NC(=O)[C@H](CC(C)C)NC3=O)c[nH]c12 [compound 9] ([Aoc][Trp(7-Me)]L[Thp]Y(Me2NCH2CH2)[2Nal][Aib]EN[3Pal][Sar]-NH2; lactam N-8)	10.8
0	0	6.2	Cc1cccc2c(C[C@@H]3NC(=O)CCCCCCCCCCCCCNC(=O)CC[C@@H](C(=O)N[C@@H](CC(N)=O)C(=O)N[C@@H](Cc4cccnc4)C(=O)N(C)CC(N)=O)NC(=O)C(C)(C)NC(=O)[C@H](Cc4ccc5ccccc5c4)NC(=O)[C@H](Cc4ccc(OCCN(C)C)cc4)NC(=O)C4(CCOCC4)NC(=O)[C@H](CCC(N)=O)NC3=O)c[nH]c12 [compound 1] ([X1][Trp(7-Me)]Q[Thp]Y(Me2NCH2CH2)[2Nal][Aib]EN[3Pal][Sar]-NH2; lactam N-8)	1.14
0	0	6.2	Cc1cccc2c(C[C@@H]3NC(=O)CCCCCCCCCNC(=O)CC[C@@H](C(=O)N[C@@H](CC(N)=O)C(=O)N[C@@H](Cc4cccnc4)C(=O)N(C)CC(N)=O)NC(=O)C(C)(C)NC(=O)[C@H](Cc4ccc5ccccc5c4)NC(=O)[C@H](Cc4ccc(OCCN(C)C)cc4)NC(=O)C4(CCOCC4)NC(=O)[C@H](CC(C)C)NC3=O)c[nH]c12 [compound 8] ([NH(CH2)9CO][Trp(7-Me)]L[Thp]Y(Me2NCH2CH2)[2Nal][Aib]EN[3Pal][Sar]-NH2; lactam N-8)	1.85
0	0	7.9	Cc1cccc2c(C[C@@H]3NC(=O)CCCCCCCCC(=O)NCCCC[C@@H](C(=O)N[C@@H](CC(N)=O)C(=O)N[C@@H](Cc4cccnc4)C(=O)N(C)CC(N)=O)NC(=O)C(C)(C)NC(=O)[C@H](Cc4ccc5ccccc5c4)NC(=O)[C@H](Cc4ccc(OCCN(C)C)cc4)NC(=O)C4(CCOCC4)NC(=O)[C@H](CCC(N)=O)NC3=O)c[nH]c12 [compound 11] ([Trp(7-Me)]Q[Thp]Y(Me2NCH2CH2)[2Nal][Aib]KN[3Pal][Sar]-NH2; linker N-7 via Sebacoyl)	0.28
0	0	3.1	CC(=O)NCCCC[C@@H]1NC(=O)[C@H](Cc2c[nH]c3c(C)cccc23)NC(=O)[C@@H](NC(C)=O)CCCCN(C)CCCCN(C)CCCC[C@@H](C(=O)N[C@@H](CC(N)=O)C(=O)N[C@@H](Cc2cccnc2)C(=O)N(C)CC(N)=O)NC(=O)C(C)(C)NC(=O)[C@@H](Cc2ccc3ccccc3c2)NC(=O)[C@H](Cc2ccc(OCCN(C)C)cc2)NC(=O)C2(CCOCC2)NC1=O [compound 13]	0.17
0	0	6.1	Cc1cccc2c(C[C@@H]3NC(=O)CCCCCCCCCCC(=O)NCCCC[C@@H](C(=O)N[C@@H](CC(N)=O)C(=O)N[C@@H](Cc4cccnc4)C(=O)N(C)CC(N)=O)NC(=O)C(C)(C)NC(=O)[C@H](Cc4ccc5ccccc5c4)NC(=O)[C@H](Cc4ccc(OCCN(C)C)cc4)NC(=O)C4(CCOCC4)NC(=O)[C@H](CCC(N)=O)NC3=O)c[nH]c12 [compound 10] ([Trp(7-Me)]Q[Thp]Y(Me2NCH2CH2)[2Nal][Aib]KN[3Pal][Sar]-NH2; linker N-7 via C12 diacid)	0.35
0	0	3.8	CC(=O)NCCCC[C@@H]1NC(=O)[C@H](Cc2c[nH]c3c(C)cccc23)NC(=O)CCCCCN(C)CCCCN(C)CCCC[C@@H](C(=O)N[C@@H](CC(N)=O)C(=O)N[C@@H](Cc2cccnc2)C(=O)N(C)CC(N)=O)NC(=O)C(C)(C)NC(=O)[C@H](Cc2ccc3ccccc3c2)NC(=O)[C@H](Cc2ccc(OCCN(C)C)cc2)NC(=O)C2(CCOCC2)NC1=O [compound 18] ([Trp(7-Me)]K(Ac)[Thp]Y(Me2NCH2CH2)[2Nal][Aib][Lys(Me,(CH2)4NMe(CH2)5CO)]N[3Pal][Sar]-NH2; lactam N-7)	0.47
0	0.4	7.1	Cc1cccc2c(C[C@@H]3NC(=O)Cc4ccc(cc4)-c4ccc(cc4)CC(=O)NCCCC[C@@H](C(=O)N[C@@H](CC(N)=O)C(=O)N[C@@H](Cc4cccnc4)C(=O)N(C)CC(N)=O)NC(=O)C(C)(C)NC(=O)[C@H](Cc4ccc5ccccc5c4)NC(=O)[C@H](Cc4ccc(OCCN(C)C)cc4)NC(=O)C4(CCOCC4)NC(=O)[C@H](CCC(N)=O)NC3=O)c[nH]c12 [compound 15] ([Trp(7-Me)]Q[Thp]Y(Me2NCH2CH2)[2Nal][Aib]KN[3Pal][Sar]-NH2; linker N-7 via X2)	12
0	0	8.6	Cc1cccc2c(C[C@@H]3NC(=O)COCCOCCOCCNC(=O)CC[C@@H](C(=O)N[C@@H](CC(N)=O)C(=O)N[C@@H](Cc4cccnc4)C(=O)N(C)CC(N)=O)NC(=O)C(C)(C)NC(=O)[C@H](Cc4ccc5ccccc5c4)NC(=O)[C@H](Cc4ccc(OCCN(C)C)cc4)NC(=O)C4(CCOCC4)NC(=O)[C@H](CCC(N)=O)NC3=O)c[nH]c12 [compound 14] ([AEEEA][Trp(7-Me)]Q[Thp]Y(Me2NCH2CH2)[2Nal][Aib]EN[3Pal][Sar]-NH2; lactam N-8)	1.21
0	0.5	3.9	Cc1cccc2c(C[C@@H]3NC(=O)CCCCCCCCCCNC(=O)CC[C@@H](C(=O)N[C@@H](CC(N)=O)C(=O)N[C@@H](Cc4cccnc4)C(=O)N(C)CC(N)=O)NC(=O)C(C)(C)NC(=O)[C@H](Cc4ccc5ccccc5c4)NC(=O)[C@H](Cc4ccc(OCCN(C)C)cc4)NC(=O)C4(CCOCC4)NC(=O)[C@H](CC(C)C)NC3=O)c[nH]c12 [compound 7] ([Aun][Trp(7-Me)]L[Thp]Y(Me2NCH2CH2)[2Nal][Aib]EN[3Pal][Sar]-NH2; lactam N-8)	1.73
0	0	12	Cc1cccc2c(C[C@@H]3NC(=O)CCCCCCC(=O)NCCCC[C@@H](C(=O)N[C@@H](CC(N)=O)C(=O)N[C@@H](Cc4cccnc4)C(=O)N(C)CC(N)=O)NC(=O)C(C)(C)NC(=O)[C@H](Cc4ccc5ccccc5c4)NC(=O)[C@H](Cc4ccc(OCCN(C)C)cc4)NC(=O)C4(CCOCC4)NC(=O)[C@H](CCC(N)=O)NC3=O)c[nH]c12 [compound 12] ([Trp(7-Me)]Q[Thp]Y(Me2NCH2CH2)[2Nal][Aib]KN[3Pal][Sar]-NH2; linker N-7 via Suberoyl)	0.97
0	0	6.3	Cc1cccc2c(C[C@@H]3NC(=O)CCCCCCCCCCNC(=O)CC[C@@H](C(=O)N[C@@H](CC(N)=O)C(=O)N[C@@H](Cc4cccnc4)C(=O)N(C)CC(N)=O)NC(=O)C(C)(C)NC(=O)[C@@H](Cc4ccc5ccccc5c4)NC(=O)[C@H](Cc4ccc(OCCN(C)C)cc4)NC(=O)C4(CCOCC4)NC(=O)[C@H](CCC(N)=O)NC3=O)c[nH]c12 [compound 4] ([Aun][Trp(7-Me)]Q[Thp]Y(Me2NCH2CH2)[d2Nal][Aib]EN[3Pal][Sar]-NH2; lactam N-8)	0.14
0	0.1	6.4	Cc1cccc2c(C[C@@H]3NC(=O)CCCCCCCCCCCNC(=O)CC[C@@H](C(=O)N[C@@H](CC(N)=O)C(=O)N[C@@H](Cc4cccnc4)C(=O)N(C)CC(N)=O)NC(=O)C(C)(C)NC(=O)[C@H](Cc4ccc5ccccc5c4)NC(=O)[C@H](Cc4ccc(OCCN(C)C)cc4)NC(=O)C4(CCOCC4)NC(=O)[C@H](CCC(N)=O)NC3=O)c[nH]c12 [compound 2] ([12Ado][Trp(7-Me)]Q[Thp]Y(Me2NCH2CH2)[2Nal][Aib]EN[3Pal][Sar]-NH2; lactam N-8)	0.28
